Results: patent US5382586A, “Aryl (or heteroaryl)piperazinylalkylazole derivatives, their preparation and their application as medicaments” (priority 1991, dated 1995)

Experiments:
[1] = system: mice, abstinence syndrome induced by cocaine, diazepam, alcohol or nicotine; assay: light box/dark box test: inhibition of the abstinence syndrome; type: in vivo, mouse; set-up: Time in box, dark (D) / Latent period L-D: unit not given here
Protocol: The light box/dark box test described by B. Costall et al. (J. Phar. Pharmacol., 1988, 40: 494-500) is used. The mouse is placed in the light zone of a box divided into two compartments, one brightly illuminated, the light box, and the other with little illumination, the dark box.
1) The number of times the mouse stands up on the hind paws in each compartment during a 5 minute period is counted (see Column 1 of Table V).
2) The activity in each compartment is given by counting the number of crossings through the squares which form the divisions of each compartment (see Column 2 of Table V).
3) The time passed in the dark box during the 5 minute counting period is determined (see Column 3 of Table 5).
4) The initial latent period is determined, that is to say the time which elapses after the animal is placed in the light box, at the start of the test, before it enters the dark box (see Column 4 of Table 5).
1) Dependency on a given treatment (diazepam, cocaine, alcohol or nicotine) employing daily administration over a period of 7 or 14 days.
Diazepam: 10 mg/kg i.p. twice per day over a period of 7 days.
Cocaine: 1 mg/kg i.p. over a period of 14 days.
Alcohol: Administered at 8% weight/volume in the drinking water over a period of 14 days. Nicotine: 0.1 mg/kg i.p. twice per day over a period of 7 days.
3) Other different groups receive, in addition to diazepam, cocaine, alcohol or nicotine, a concomitant treatment with products which are the subject of the present invention and, by way of comparison, with buspirone or ipsapirone.
The product described and the doses tested were: 4,5-dichloro-2-methyl-1-{4-[4-(2-pyrimidinyl)-1-piperazinyl]-butyl}-1H-imidazole citrate.
1 μg/kg p.o. twice per day.

[2] = system: conditioned avoidance response in male Wistar rats; assay: conditioned avoidance response test (inhibition of the conditioned avoidance response; anxiolytic/tranquillising activity); type: in vivo, rat (male Wistar); conditions: rat; for Activity % (inhibition of the conditioned avoidance response): D = 80 mg/kg, p.o., 45 min before test; for ED50: po, 0.75 h
Protocol: Male Wistar rats weighing 200 grammes which have been trained to jump over a barrier in an avoidance and escape cage (shuttle box) (Letica, reference LI 910 and LI 2700) within 30 seconds of their being introduced into the cage are used in this test.
The products having an anxiolytic or tranquillising activity suppress the conditioned avoidance response.
Training: day one: 11 trials at 3 minute intervals. Electric shock to the paws after 30 seconds (5 mA, 0.1 s, 10 s).
Days two and three: 2 trials per day, with the selected rats only [sum of the scores for the first day (with the exception of the first trial)>14].
Test day: groups formed by selected rats. Oral administration of the product or the vehicle 45 minutes before the start of the study.

[3] = system: norepinephrine-induced death in rats; assay: norepinephrine antagonism test in rats (antihypertensive activity); type: in vivo, rat (male Wister); conditions: for Activity % (norepinephrine antagonistic antihypertensive activity): D = 40 mg/kg, i.p., rat, norepinephrine 1.25 mg/kg i.v. after 2 hours
Protocol: This activity is manifested by the protection of animals before death induced by an intravenous injection of norepinephrine, which produces a hypertensive attack in rats.
Male Wister rats weighing 200 grammes are used in this test. The product to be studied is administered intraperitoneally and 1.25 mg/kg (i.v.) of norepinephrine are administered after 2 hours.
The initial administration dose in these studies is 40 mg/kg (i.p.).

[4] = 24 h after stopping alcohol (alone, or with the named product; Ex. 42 at 1 μg/kg p.o. twice per day)
[5] = during long-term treatment with the agent (doses as E20)
[6] = during long-term treatment with the agent (doses as E20), 5 minute counting period
[7] = during long-term treatment with the agent (doses as E20), number of crossings
[8] = 24 h after stopping cocaine (alone, or with the named product; Ex. 42 at 1 μg/kg p.o. twice per day)
[9] = 24 h after stopping diazepam (alone, or with the named product; Ex. 42 at 1 μg/kg p.o. twice per day)
[10] = 24 h after stopping nicotine (alone, or with the named product; Ex. 42 at 1 μg/kg p.o. twice per day)
[11] = during long-term treatment: cocaine 1 mg/kg i.p. 14 days, diazepam 10 mg/kg i.p. twice per day 7 days, alcohol 8% w/v drinking water 14 days, nicotine 0.1 mg/kg i.p. twice per day 7 days

CCO [Alcohol]
Activity within 5 min period, dark box (D) [1, 4]: 167
Activity within 5 min period, light box (L) [1, 4]: 6
Latent period L-D [1, 4]: 2
Time in box, dark (D) [1, 4]: 84
Latent period L-D [1, 5]: 28
Time in box, dark (D) [1, 6]: 28
Activity within 5 min period, dark box (D) [1, 7]: 28
Activity within 5 min period, light box (L) [1, 7]: 80
Number of times standing erect within 5 min. period, dark box (D) ([1]; mouse, in vivo): 22
Number of times standing erect within 5 min. period, light box (L) ([1]; mouse, in vivo): 72
Number of times standing erect within 5 min. period, dark box (D) ([1]; mouse, in vivo, po): 147
Number of times standing erect within 5 min. period, light box (L) ([1]; mouse, in vivo, po): 5

O=C1CC2(CCCC2)CC(=O)N1CCCCN1CCN(c2ncccn2)CC1 [Buspirone]
Activity % (inhibition of the conditioned avoidance response) [2]: 99%
Activity within 5 min period, dark box (D) [1, 4]: 75
Activity within 5 min period, light box (L) [1, 4]: 15
Latent period L-D [1, 4]: 7
Number of times standing erect within 5 min. period, dark box (D) [1, 4]: 80
Number of times standing erect within 5 min. period, light box (L) [1, 4]: 18
Time in box, dark (D) [1, 4]: 62
Activity within 5 min period, dark box (D) [1, 8]: 90
Activity within 5 min period, light box (L) [1, 8]: 18
Latent period L-D [1, 8]: 2
Number of times standing erect within 5 min. period, dark box (D) [1, 8]: 98
Number of times standing erect within 5 min. period, light box (L) [1, 8]: 10
Time in box, dark (D) [1, 8]: 70
Activity within 5 min period, dark box (D) [1, 9]: 100
Activity within 5 min period, light box (L) [1, 9]: 12
Latent period L-D [1, 9]: 2
Number of times standing erect within 5 min. period, dark box (D) [1, 9]: 88
Number of times standing erect within 5 min. period, light box (L) [1, 9]: 9
Time in box, dark (D) [1, 9]: 72
Activity within 5 min period, dark box (D) [1, 10]: 85
Activity within 5 min period, light box (L) [1, 10]: 20
Latent period L-D [1, 10]: 8
Number of times standing erect within 5 min. period, dark box (D) [1, 10]: 80
Number of times standing erect within 5 min. period, light box (L) [1, 10]: 12
Time in box, dark (D) [1, 10]: 65
abstinence syndrome ([1]; induced by diazepam and cocaine): maintains the abstinence syndrome
abstinence syndrome ([1]; treatment with alcohol and nicotine stopped): an abstinence syndrome, i.e. anxiogenesis, no longer exists
inhibition of anxiogenic response parameters ([1]; treatment with alcohol stopped): significantly inhibits only a few anxiogenic response parameters

Clc1cccc(Cl)c1N=C1NCCN1 [Clonidine, reference compound]
Activity % (norepinephrine antagonistic antihypertensive activity) [3]: 100%
ED50 ([3]; Rattus norvegicus, ip, 2 h, read-out: ED50 (norepinephrine antagonistic antihypertensive activity)): 1.58 mg/kg

COC(=O)[C@H]1[C@@H](OC(=O)c2ccccc2)C[C@@H]2CC[C@H]1N2C [Cocaine]
Activity within 5 min period, dark box (D) [1, 8]: 149
Activity within 5 min period, light box (L) [1, 8]: 10
Latent period L-D [1, 8]: 2
Number of times standing erect within 5 min. period, dark box (D) [1, 8]: 122
Number of times standing erect within 5 min. period, light box (L) [1, 8]: 7
Time in box, dark (D) [1, 8]: 83
Latent period L-D [1, 5]: 18
Number of times standing erect within 5 min. period, dark box (D) [1, 5]: 38
Time in box, dark (D) [1, 6]: 30
Activity within 5 min period, dark box (D) [1, 7]: 30
Activity within 5 min period, light box (L) [1, 7]: 68
Number of times standing erect within 5 min. period, light box (L) [1, 11]: 60

CN1C(=O)CN=C(c2ccccc2)c2cc(Cl)ccc21 [Diazepam]
Activity within 5 min period, dark box (D) [1, 9]: 164
Activity within 5 min period, light box (L) [1, 9]: 5
Latent period L-D [1, 9]: 1.8
Number of times standing erect within 5 min. period, dark box (D) [1, 9]: 146
Number of times standing erect within 5 min. period, light box (L) [1, 9]: 5
Time in box, dark (D) [1, 9]: 80
Latent period L-D [1, 5]: 27
Number of times standing erect within 5 min. period, dark box (D) [1, 5]: 25
Time in box, dark (D) [1, 6]: 25
Activity within 5 min period, dark box (D) [1, 7]: 24
Activity within 5 min period, light box (L) [1, 7]: 73
Number of times standing erect within 5 min. period, light box (L) [1, 11]: 70

c1cnc(N2CCN(CCCCn3cccc3)CC2)nc1 [Example 1, 1-{4-[4-(2-pyrimidinyl)-1-piperazinyl]-butyl}pyrrole]
Activity % (inhibition of the conditioned avoidance response) [2]: 94%
ED50 [2]: 32.4 mg/kg
Activity % (norepinephrine antagonistic antihypertensive activity) [3]: 0%

c1cnc(N2CCN(CCCCn3c4ccccc4c4ccccc43)CC2)nc1 [Example 2]
Activity % (inhibition of the conditioned avoidance response) [2]: 37%
Activity % (norepinephrine antagonistic antihypertensive activity) [3]: 0%

c1cnc(N2CCN(CCCCn3ccc4ccccc43)CC2)nc1 [Example 3]
Activity % (inhibition of the conditioned avoidance response) [2]: 74%
ED50 [2]: 42.8 mg/kg
Activity % (norepinephrine antagonistic antihypertensive activity) [3]: 25%
